Data set [1] relates to BHK cells infected with Sindbis virus. The data set can be described thus: Cell viability of Sindbis-infected BHK cells, Trypan blue dye-exclusion and light microscopy. It is filed as cell-based, hamster. The following applies: for cell viability (viable cell count): 48 hour infection. Here is the method:
Additional cell viability studies were done using a combined assessment of cellular morphology via light microscopy, or visual inspection of cell viability, and plasma membrane integrity measurements using a Trypan blue dye-exclusion assay. Specifically, BHK cells were seeded to the wells of a 96-well plate (2×10^4 cells/well) and cultured overnight in complete growth medium. […] After a 48 hour infection period, the cells were resuspended and an aliquot of cells (10 μL) was mixed with 90 μL 0.2% trypan blue. The number of viable cells was determined by counting with a hemocytometer.
Also, a corresponding set of wells was identically prepared exclusively for observation using Trypan blue staining and light microscopy. FIGS. 6A-6H are light microscopy images showing cell morphology at various concentrations of Co(NH3)6 at 48 hours post infection following 6 hours of pretreatment with Co(NH3)6. […] Viable cells remain attached to the tissue culture substrate and have an elongated, epithelial cell-like appearance. The arrows in FIGS. 6E-6G indicate examples of cells that have retained an elongated and adherent morphology. Non-viable cells are detached from the tissue culture substrate and are rounded. FIGS. 6B-6H illustrate that pronounced cell death is apparent in the presence of no Co(NH3)6 (FIG. 6B) and at lower concentrations of Co(NH3)6 (FIGS. 6C and 6D).

Another data set has as its system SV-infected BHK cells. The data set can be described thus: Flow cytometry propidium iodide viability of Sindbis-infected BHK cells. It is filed as cell-based, hamster. On the technique in general: A flow cytometer gives signals particle by particle.

For the substance Co(NH3)6, the “cell viability (viable cell count)” value in data set [1] (Sindbis-infected, 6 hours pretreatment, at 1.2 mM) is 80%; in data set [1] (Sindbis-infected, at 0.15 mM) it was “further decreased viability”. In addition, the “cell morphology, viable cells by light microscopy” value in data set [1] (Sindbis-infected, 48 hours post infection, at 0.6 and 1.2 mM) is on record as “viable cells appeared more pronounced”. In addition, in data set [1] (light microscopy and cell viability count), the “concentration providing optimal protection against Sindbis virus” value was 1.2 mM. The “percentage of PI-positive (non-viable) cells” value in the data set with SV-infected BHK cells (at 0.15 mM, relative to untreated infected cells) is recorded as “significantly lower percentage”. In addition, the “effect of timing of treatment on survivability of the cells” value with SV-infected BHK cells (pretreatment, co-infection, 2, 4 and 24 hours post-infection) is given as “very little effect”.
